# Measured values as given in patent US20200197516A1, “Antagonists of Products of the HS.459642 Unigene Cluster for the Inhibition of Proliferation, Development or Differentiation of Stem Cells Including Cancer Stem Cells” (Cavion, Inc., priority 2011, published 2020).
# System: glioma stem cells (GSC)
# Test: alamarBlue assay: sensitizing glioma stem cells to Temozolomide
# Format: cell-based
# Details: mibefradil 30 nM for 24 hrs, washed, then Temozolomide 5 μM for 24 hrs, FIG. 4
# Protocol: FIG. 4. Effect of mibefradil (Mi) on sensitizing glioma stem cells (GSC) to Temozolomide (TMZ). The GSCs were seeded in 24 well plates as 50,000 cells/well overnight. They were grown in serum-free neurobasal media (Invitrogen), supplemented with human recombinant EGF and bFGF (R&D Systems) at 37° C. in 5% CO2, […]. Cells were treated with the T type calcium channel blocker mibefradil (30 nM) for 24 hrs, washed and then treated with Temozolomide (5 μM) for 24 hrs The reagent alamarBlue® (Invitrogen) was added to each well to arrive at a final concentration of 10% alamarBlue® in each well and fluorescence intensity was determined according to the manufacturers instructions. Plates were incubated for 1-2 hrs and 100 μl of supernatant was transferred to a 96 well plate for alamarBlue® reading.
# FIG. 5. […]
# In order to determine the effect of inhibition of a product of the Hs.459642 Unigene Cluster on cancer stem cells, the effect of two inhibitors of T-type calcium channels was studied to determine if CACNA1H inhibition sensitizes cancer cells to further anti-cancer treatment. […] Subsequent to the combination treatment, with the anti-cancer agent administered sequentially to the CACNA1H inhibitor, fluorescence intensity indicative of cell proliferation was analyzed, with greater intensity indicating increased cellular proliferation. […]
smiles,measurement,value
"COCC(=O)O[C@]1(CCN(C)CCCc2nc3ccccc3[nH]2)CCc2cc(F)ccc2[C@@H]1C(C)C [Mi, mibefradil]","fluorescence intensity (alamarBlue, indicative of cell proliferation)",dramatically reduced
